Data as given in ChEMBL document CHEMBL1201862, “PubChem BioAssay data set” (2004).
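Dose response: 5 concentrations. Exposure: 48 h. Format: 96-well plates. Endpoint: linear interpolation; highest concentration if not reached. GI50 is the concentration that inhibits growth by half.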 The source made the active and inactive calls. Rule as the data show it: active = GI50 up to about 1.1 µM and inactive = higher.

Key:
Assay in all cases: inhibition of tumour cell growth, NCI panel, 48 h
786-0 = test system: 786-0
A498 = test system: A498
A549 = test system: A549
ACHN = test system: ACHN
BT-549 = test system: BT-549
CAKI-1 = test system: CAKI-1
CCRF-CEM = test system: CCRF-CEM
COLO 205 = test system: COLO 205
DU-145 = test system: DU-145
EKVX = test system: EKVX
HCC 2998 = test system: HCC 2998
HCT-116 = test system: HCT-116
HCT-15 = test system: HCT-15
HL-60 = test system: HL-60
HOP-62 = test system: HOP-62
HOP-92 = test system: HOP-92
HT-29 = test system: HT-29
Hs-578T = test system: Hs-578T
IGROV-1 = test system: IGROV-1
K562 = test system: K562
KM12 = test system: KM12
LOX IMVI = test system: LOX IMVI
M14 = test system: M14
MCF7 = test system: MCF7
MDA-MB-231 = test system: MDA-MB-231
MDA-MB-435 = test system: MDA-MB-435
MDA-N = test system: MDA-N
Malme-3M = test system: Malme-3M
NCI-H226 = test system: NCI-H226
NCI-H23 = test system: NCI-H23
NCI-H460 = test system: NCI-H460
NCI-H522 = test system: NCI-H522
NCI/ADR-RES = test system: NCI/ADR-RES
OVCAR-3 = test system: OVCAR-3
OVCAR-4 = test system: OVCAR-4
OVCAR-5 = test system: OVCAR-5
OVCAR-8 = test system: OVCAR-8
PC-3 = test system: PC-3
RPMI-8226 = test system: RPMI-8226
RXF 393 = test system: RXF 393
SF-268 = test system: SF-268
SF-295 = test system: SF-295
SK-MEL-28 = test system: SK-MEL-28
SK-MEL-2 = test system: SK-MEL-2
SK-MEL-5 = test system: SK-MEL-5
SK-OV-3 = test system: SK-OV-3
SN12C = test system: SN12C
SNB-19 = test system: SNB-19
SNB-75 = test system: SNB-75
SR = test system: SR
SW-620 = test system: SW-620
T47D = test system: T47D
TK-10 = test system: TK-10
U-251 = test system: U-251
UACC-257 = test system: UACC-257
UACC-62 = test system: UACC-62
UO-31 = test system: UO-31
MOLT-4 = test system: MOLT-4
SF-539 = test system: SF-539

S=C(S)NCCN1CCNCC1
GI50 (786-0): 22.3 µM (inactive)
GI50 (A498): > 100 µM (inactive)
GI50 (A549): > 100 µM (inactive)
GI50 (ACHN): 36.7 µM (inactive)
GI50 (BT-549): 88.1 µM (inactive)
GI50 (CAKI-1): 39.5 µM (inactive)
GI50 (CCRF-CEM): 21.1 µM (inactive)
GI50 (COLO 205): 18 µM (inactive)
GI50 (DU-145): 36.1 µM (inactive)
GI50 (EKVX): 57.1 µM (inactive)
GI50 (HCC 2998): 22.7 µM (inactive)
GI50 (HCT-116): 27.9 µM (inactive)
GI50 (HCT-15): 47.8 µM
GI50 (HL-60): < 0.01 µM (active)
GI50 (HOP-62): > 100 µM (inactive)
GI50 (HOP-92): 75.9 µM (inactive)
GI50 (HT-29): 59.7 µM (inactive)
GI50 (Hs-578T): > 100 µM (inactive)
GI50 (IGROV-1): 49.5 µM (inactive)
GI50 (K562): 24.4 µM (inactive)
GI50 (KM12): > 100 µM (inactive)
GI50 (LOX IMVI): 40.1 µM (inactive)
GI50 (M14): 31.2 µM (inactive)
GI50 (MCF7): 40 µM (inactive)
GI50 (MDA-MB-231): > 100 µM (inactive)
GI50 (MDA-MB-435): 62.1 µM (inactive)
GI50 (MDA-N): 37.2 µM (inactive)
GI50 (Malme-3M): 25.4 µM (inactive)
GI50 (NCI-H226): > 100 µM (inactive)
GI50 (NCI-H23): > 100 µM (inactive)
GI50 (NCI-H460): 34.6 µM (inactive)
GI50 (NCI-H522): 14.7 µM (inactive)
GI50 (NCI/ADR-RES): > 100 µM (inactive)
GI50 (OVCAR-3): 22.4 µM (inactive)
GI50 (OVCAR-4): > 100 µM (inactive)
GI50 (OVCAR-5): > 100 µM (inactive)
GI50 (OVCAR-8): 28.9 µM (inactive)
GI50 (PC-3): 34.3 µM (inactive)
GI50 (RPMI-8226): 18.6 µM (inactive)
GI50 (RXF 393): 19.8 µM (inactive)
GI50 (SF-268): 99.3 µM (inactive)
GI50 (SF-295): > 100 µM (inactive)
GI50 (SK-MEL-28): > 100 µM (inactive)
GI50 (SK-MEL-2): 67.1 µM (inactive)
GI50 (SK-MEL-5): 52.1 µM (inactive)
GI50 (SK-OV-3): > 100 µM (inactive)
GI50 (SN12C): 49.2 µM (inactive)
GI50 (SNB-19): > 100 µM (inactive)
GI50 (SNB-75): > 100 µM (inactive)
GI50 (SR): 24.5 µM (inactive)
GI50 (SW-620): 20.7 µM (inactive)
GI50 (T47D): 10.7 µM (inactive)
GI50 (TK-10): 20.8 µM (inactive)
GI50 (U-251): > 100 µM (inactive)
GI50 (UACC-257): 20.7 µM (inactive)
GI50 (UACC-62): 84.9 µM (inactive)
GI50 (UO-31): 29.7 µM (inactive)

COc1ccc(/C=N/n2cnc3[nH]c(C)c(Cc4ccccc4)c3c2=N)cc1
GI50 (786-0): > 100 µM (inactive)
GI50 (A498): 67.8 µM (inactive)
GI50 (A549): 89.5 µM (inactive)
GI50 (ACHN): 97.1 µM (inactive)
GI50 (BT-549): 75 µM (inactive)
GI50 (CAKI-1): > 100 µM (inactive)
GI50 (CCRF-CEM): 54.3 µM (inactive)
GI50 (COLO 205): 75.9 µM (inactive)
GI50 (DU-145): > 100 µM (inactive)
GI50 (EKVX): > 100 µM (inactive)
GI50 (HCC 2998): > 100 µM (inactive)
GI50 (HCT-116): > 100 µM (inactive)
GI50 (HCT-15): > 100 µM
GI50 (HL-60): > 100 µM (inactive)
GI50 (HOP-62): > 100 µM (inactive)
GI50 (HOP-92): 29.2 µM (inactive)
GI50 (HT-29): > 100 µM (inactive)
GI50 (Hs-578T): 80.9 µM (inactive)
GI50 (IGROV-1): 39.7 µM (inactive)
GI50 (KM12): > 100 µM (inactive)
GI50 (M14): > 100 µM (inactive)
GI50 (MCF7): 39.1 µM (inactive)
GI50 (MDA-MB-231): 68.4 µM (inactive)
GI50 (MDA-MB-435): > 100 µM (inactive)
GI50 (MDA-N): > 100 µM (inactive)
GI50 (MOLT-4): 52.1 µM (inactive)
GI50 (Malme-3M): > 100 µM (inactive)
GI50 (NCI-H226): > 100 µM (inactive)
GI50 (NCI-H23): 53.1 µM (inactive)
GI50 (NCI-H460): 81.7 µM (inactive)
GI50 (NCI-H522): 65 µM (inactive)
GI50 (NCI/ADR-RES): > 100 µM (inactive)
GI50 (OVCAR-3): > 100 µM (inactive)
GI50 (OVCAR-4): > 100 µM (inactive)
GI50 (OVCAR-5): > 100 µM (inactive)
GI50 (OVCAR-8): 90.6 µM (inactive)
GI50 (PC-3): > 100 µM (inactive)
GI50 (RPMI-8226): 34.8 µM (inactive)
GI50 (RXF 393): 19.2 µM (inactive)
GI50 (SF-268): 72.9 µM (inactive)
GI50 (SF-295): 53.3 µM (inactive)
GI50 (SK-MEL-28): > 100 µM (inactive)
GI50 (SK-MEL-2): > 100 µM (inactive)
GI50 (SK-MEL-5): > 100 µM (inactive)
GI50 (SK-OV-3): > 100 µM (inactive)
GI50 (SN12C): 92 µM (inactive)
GI50 (SNB-19): > 100 µM (inactive)
GI50 (SNB-75): 71.9 µM (inactive)
GI50 (SR): > 100 µM (inactive)
GI50 (SW-620): 57.1 µM (inactive)
GI50 (T47D): 30.1 µM (inactive)
GI50 (TK-10): > 100 µM (inactive)
GI50 (U-251): 86.1 µM (inactive)
GI50 (UACC-257): > 100 µM (inactive)
GI50 (UACC-62): > 100 µM (inactive)
GI50 (UO-31): > 100 µM (inactive)

COP(=O)(OC)/C(=C/c1c[nH]c2ccccc12)C(=O)O
GI50 (786-0): > 100 µM (inactive)
GI50 (A498): > 100 µM (inactive)
GI50 (A549): > 100 µM (inactive)
GI50 (ACHN): > 100 µM (inactive)
GI50 (BT-549): > 100 µM (inactive)
GI50 (CAKI-1): > 100 µM (inactive)
GI50 (CCRF-CEM): > 100 µM (inactive)
GI50 (COLO 205): > 100 µM (inactive)
GI50 (DU-145): > 100 µM (inactive)
GI50 (EKVX): > 100 µM (inactive)
GI50 (HCC 2998): > 100 µM (inactive)
GI50 (HCT-116): > 100 µM (inactive)
GI50 (HCT-15): > 100 µM
GI50 (HL-60): > 100 µM (inactive)
GI50 (HOP-62): > 100 µM (inactive)
GI50 (HOP-92): > 100 µM (inactive)
GI50 (HT-29): > 100 µM (inactive)
GI50 (Hs-578T): > 100 µM (inactive)
GI50 (IGROV-1): > 100 µM (inactive)
GI50 (K562): > 100 µM (inactive)
GI50 (KM12): > 100 µM (inactive)
GI50 (LOX IMVI): > 100 µM (inactive)
GI50 (M14): > 100 µM (inactive)
GI50 (MCF7): > 100 µM (inactive)
GI50 (MDA-MB-231): > 100 µM (inactive)
GI50 (MDA-MB-435): > 100 µM (inactive)
GI50 (MDA-N): > 100 µM (inactive)
GI50 (MOLT-4): > 100 µM (inactive)
GI50 (Malme-3M): > 100 µM (inactive)
GI50 (NCI-H226): > 100 µM (inactive)
GI50 (NCI-H23): > 100 µM (inactive)
GI50 (NCI-H460): > 100 µM (inactive)
GI50 (NCI-H522): > 100 µM (inactive)
GI50 (NCI/ADR-RES): > 100 µM (inactive)
GI50 (OVCAR-3): > 100 µM (inactive)
GI50 (OVCAR-4): > 100 µM (inactive)
GI50 (OVCAR-5): > 100 µM (inactive)
GI50 (OVCAR-8): > 100 µM (inactive)
GI50 (PC-3): > 100 µM (inactive)
GI50 (RPMI-8226): > 100 µM (inactive)
GI50 (RXF 393): > 100 µM (inactive)
GI50 (SF-295): > 100 µM (inactive)
GI50 (SF-539): > 100 µM (inactive)
GI50 (SK-MEL-28): > 100 µM (inactive)
GI50 (SK-MEL-2): > 100 µM (inactive)
GI50 (SK-MEL-5): > 100 µM (inactive)
GI50 (SK-OV-3): > 100 µM (inactive)
GI50 (SN12C): > 100 µM (inactive)
GI50 (SNB-19): > 100 µM (inactive)
GI50 (SNB-75): > 100 µM (inactive)
GI50 (SR): > 100 µM (inactive)
GI50 (SW-620): > 100 µM (inactive)
GI50 (T47D): > 100 µM (inactive)
GI50 (TK-10): > 100 µM (inactive)
GI50 (U-251): > 100 µM (inactive)
GI50 (UACC-62): > 100 µM (inactive)
GI50 (UO-31): > 100 µM (inactive)
